Reference: PubChem BioAssay (NCI)
“And” between values parts separate entries of the source, which are not always exact repeats. Equal entries are not always repeated.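 Each compound was tested at five concentrations against cells in 96-well plates for 48 hours. At the GI50, growth is halved. At the TGI there is no net growth.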

Columns and labels:
Test in all cases: NCI tumour cell line growth inhibition, 48 h
P388 leukemia = test system: P388 leukemia
SN12K1 renal = test system: SN12K1 renal
RXF-631 renal = test system: RXF-631 renal
LXFL 529 NSCLC = test system: LXFL 529 NSCLC

| SMILES | TGI (P388 leukemia) [µM] | TGI (SN12K1 renal) | GI50 (P388 leukemia) | GI50 (SN12K1 renal) | TGI (RXF-631 renal) [µM] | TGI (LXFL 529 NSCLC) [µM] |
| --- | --- | --- | --- | --- | --- | --- |
| CN1C(=O)c2ccccc2NC(=O)c2cnn(C)c21 | > 100 | > 100 µM | – | – | – | – |
| CC1=C(C)C(=O)O[C@@H]([C@](C)(O)[C@]2(O)CC[C@@]3(O)[C@@H]4C[C@H]5O[C@]56[C@@H](O)C=CC(=O)[C@]6(C)[C@H]4CC[C@]23C)C1 | – | 6.39 µM and 21.6 µM | 0.17 µM and 0.0616 µM | 1.4 µM and 5.89 µM | – | – |
| Cc1cc(NC(=S)Nc2ccccc2)c(NC(=S)Nc2ccccc2)cc1C | 13.5 | > 59.1 µM | – | – | – | – |
| COC(=O)CCC(=O)CC(=O)C1=NS(=O)(=O)c2nc(S(N)(=O)=O)c(Cl)cc2N1 | – | – | – | – | > 100 | > 100 |
| CC1C(=O)OC2CC[N+]3(CC(=O)c4ccc(Br)cc4)CC=C(COC(=O)C(C)(O)C1(C)O)C23 (stereo not drawn) | > 174 | > 375 µM | – | – | – | – |
| O=C(O)CCCCCCC[C@@H]1S[C@H]1CCCCCCO | > 100 | > 100 µM | – | – | – | – |
